# Several values for one entry are separate records, joined by “and”; a condition that tells them apart may be missing. Identical values can stand only once. Entries after “also recorded” stand apart in the source; their conditions may differ.
# Key:
# [1] = system: Cortical neurons from Kcnt1^R455H heterozygous mice; assay: Neuronal electrophysiology (current clamp and voltage clamp); assay type: cell-based, mouse; settings: 10 μM, 20 minutes, vs vehicle control
# Experimental: Cortical neurons from Kcnt1^R455H heterozygous mice were cultured and treated for 20 minutes with 10 μM of a compound of Formula (I-A) in DMSO. Presumed glutamatergic neurons were identified based on pyramidal morphology. Presumed GABAergic neurons were identified based on spindle morphology (and fast spiking pattern in the control recordings). Current clamp and voltage clamp recordings were performed on an Axon Multiclamp 700B amplifier. It was observed that pyramidal cells treated with vehicle control had many action potentials and mild adaptation in response to an inward current and large outward currents with depolarization.
# [2] = Brain exposure in pups after maternal dosing (LC-MS/MS); assay type: in vivo, mouse; settings: KCNT1^R455H/R455H pups, individual, brain collected when found deceased; maternal 75 mg/kg s.c.
# Experimental: (§1) Whole brains were collected from all pups at 14 days after birth or at the time they are found deceased. Tails were genotyped through an automated system (Transnetyx) which was previously validated against PCR-based RFLP and sequencing. The whole brains were analyzed to determine brain exposure of Formula (I-A).
# Bioanalysis of Brain Samples: Brain tissue was homogenized in 10:1 (v/wt) ratio using 10 mM PBS in methanol (2:1, v/v). 20 μL of samples were then precipitated with 200 μL IS solution (100 ng/mL Labetalol & 100 ng/mL Tolbutamide in ACN). The mixture was vortex-mixed and centrifuged at 4000 rpm for 15 min, 4° C. An aliquot of 100 μL supernatant was transferred to a sample plate and mixed with 100 μL water. The plate was shaken at 800 rpm for 10 minutes. 1 μL supernatant was then injected for LC-MS/MS analysis. A 1-3000 ng/ml PRX-0002904 calibration curve was prepared in mouse brain homogenate. Ultra-performance liquid chromatography (UPLC) parameters conditions are provided in Table 5 below, and the results are shown in Table 6 below.
# [3] = system: Kcnt1^R455H/+ heterozygous mice; assay: PTZ-induced seizures in Kcnt1^R455H/+ heterozygous mice; assay type: in vivo, mouse; settings: for Convulsive seizure latency: hazard ratio (drug/vehicle): log rank test; for Latency (s) to clonic or tonic seizures with loss of posture: individual animals, 1320 s = no seizure observed over the experiment, 75 mg/kg
# Experimental: Kcnt1^R455H/+ heterozygous mice have increased sensitivity to PTZ seizure induction as compared with wild-type littermates. It was determined herein whether a compound of Formula (I-A) delivered prior to PTZ could delay the onset of convulsive seizures. Formula (I-A) (75 mg/kg s.c.) or a vehicle control was administered as a single dose. After a pretreatment period of one or two hours, mice were administered PTZ at a dose of 55 mg/kg for induction of seizures. Seizures were then scored based on behavior (no EEG). The latency to convulsive seizures was compared between groups to determine if the compound can prevent induced seizures.
# Animals: Adult Kcnt1^R455H/+ heterozygous C57/B6J mice were used in this example. Mice were approximately 2 months old. No preference was made for male or female animals.
# Drug preparation and delivery: A 7.5 mg/mL solution of a compound of Formula (I-A) was prepared on each day of injection in 10% DMSO/10% Solutol/80% deionized water with a volume sufficient for 10-20 animals. After at least 30 minutes of acclimatization to the testing environment, either the drug or vehicle control was delivered to each animal subcutaneously at a dose of 75 mg/kg based on current body weight.
# PTZ injection and testing: Kcnt1^R455H/+ mice were tested with PTZ 55 mg/kg IP administered 1 or 2 hours after administration of either the compound of Formula (I-A) 75 mg/kg SC or vehicle control. Mice were then monitored continuously for 30 min by an observer blinded to treatment group. […] Latency to first clonic seizure with loss of posture was recorded and compared using the time to event analysis; log-rank Mantel-Cox in GraphPad Prism, p<0.05 was considered statistically significant. Seizures induced by PTZ were scored using a modified Racine scale, and the latency to convulsive seizures was compared between drug and vehicle groups (log rank test).
# Behavior was scored live, and mice were recorded on video for later confirmation. Seizure severity scores were based on a recent report that is specifically designed for mouse PTZ experiments (Van Erum et al., Epilepsy and Behavior 2019 June; 95:51-55). Behavioral seizure scores were as follows: • −1: normal baseline • 0: whisker trembling • 1: behavioral arrest • 2: facial jerking • 3: neck jerks/myoclonus • 4: clonic (sitting) • 5: clonic, tonic-clonic (lying on belly) • 6: clonic, tonic-clonic (lying on side), and wild jumping • 7: tonic extension, possibly leading to respiratory arrest and death.
# The time at which mice reached each stage was recorded. It was difficult to reliably ascertain grade 0-2 seizures without the aid of EEG, and there was inconsistency between reviewers for stage 3-5 seizures. As the clearest and most consistent (between examiners) scores were for stage 6-7, only these were used for reporting and analysis, although earlier scores were also recorded and saved. Latency to stage 6 or above seizures were plotted as survival curves, and differences were assessed with a long rank test. Scoring was cut off after 22 minutes post-PTZ administration (1320 seconds).
# [4] = system: Kcnt1^R455H/+ heterozygous mice; assay: Spontaneous interictal epileptiform discharges (spikes) on EEG; assay type: in vivo, mouse; settings: 75 mg/kg s.c.
# Excerpt: Infrequent spontaneous seizures also occur in some Kcnt1^R455H/+ heterozygous mice. This experiment sought to determine if administration of a compound of Formula (I-A) could reduce interictal spikes.
# Animals: Adult Kcnt1^R455H/+ heterozygous mice on a C57/B6J background were used in all experiments disclosed in this example. Mice were approximately 2-3 months old. No preference was made for male or female animals. This strain is almost always stillborn in the homozygous condition. Seizures occur in some but not all heterozygotes, and interictal discharges occurs reliably.
# Implantation of EEG electrodes: Mice were anesthetized with inhaled isoflurane 3-4% induction followed by approximately 1-1.5% maintenance titrated to effect. The head was fixed in a Kopf stereotactic apparatus, and the scalp was sterilized with povidone-iodine. The temperature was regulated to 37 degrees Celsius with a heating pad and rectal probe. Pre-emptive analgesia was provided with subgaleal bupivacaine 0.1% administered to form a wheal on the scalp, no more than 0.08 mL/10 g body weight. A linear midline scalp incision was made from behind the eyes to expose skull markers. Four holes were drilled (#60 drill bit): two anterior to the coronal suture (for left and right active recording), and two ⅔ of the way from the frontal to lambdoid suture (for reference and ground), […]. Screw electrodes were inserted in each burr hole (size W00-96×1.6 mm soldered to 15 mm insulated wire) and connected to a plastic pedestal (PlasticsOne E363). This assembly was then secured with dental cement. Meloxicam 5 mg/kg IP was given for post-operative analgesia.
# Drug preparation for mice under EEG: A 7.5 mg/mL solution of a compound of Formula (I-A) was prepared on the day of injection in 10% DMSO/10% Solutol/80% deionized water. After at least 72 hours of baseline recording, the compound of Formula (I-A) was delivered subcutaneously at a dose of 75 mg/kg based on pre-surgical body weight.
# EEG recording and analysis: Mice were held in a heated cage for at least 24 hours to recover before connection to the EEG recording system. Two-channel EEG with video was recorded using a Compumedics Grael EEG amplifier at 512 Hz sampling rate. The entire EEG was reviewed manually, and all interictal discharges and seizures were identified and marked. Video recordings were used to confirm epileptiform activity. Mice that had adequate recording quality and interictal spikes were selected for drug delivery. […] EEG recordings were manually scored by a reviewer blinded to treatment group. […]
# EEG data were collected and reviewed in Compumedics Profusion. […] Average interictal discharge rates were determined in the baseline period and in the first, second, and third post-injection days (FIG. 3A). […]
# Kcnt1^R455H/R455H pups = assay: Survival of R455H homozygous pups after dosing of pregnant dams; assay type: in vivo, mouse; settings: for Age survived before death or euthanasia: individual, dams 75 mg/kg s.c.
# Experimental: Quraishi et. al. PMID 32081855. Without wishing to be bound by theory, it is thought that inhibition of mutant channel activity by KCNT1 inhibitors, such as the compound of Formula (I-A), during gestation might aid the survival of homozygous pups. Timed matings were performed on heterozygote breeding pairs, and a compound of Formula (I-A) was administered to the pregnant dams. No dosing of the live pups with Formula (I-A) was performed. All surviving and stillborn offspring that could be recovered were then genotyped, and brains were dissected and sent for measurement of Formula (I-A).
# Breeding and dosing: Timed matings were performed on three KCNT1^R455H+×KCNT1^R455H/+ breeding pairs. Maternal injections of Formula (I-A) (75 mg/kg s.c.) were performed for four pregnant dams from three Kcnt1^R455H/+×Kcnt1^R455H/+ breeding pairs and one Kcnt1^+/+×Kcnt1^+/+ breeding pair. Starting approximately 13 days after the mating plug was identified, pregnant dams were administered 75 mg/kg Formula (I-A) (s.c.) every 3 days (as permitted) through the time of delivery. There was some variability in the days of administration as noted. Offspring were observed daily after delivery. The records of litters and treatment dates are shown below in Table 3. In round one, two doses of Formula (I-A) were delivered to each of the two dams from the Kcnt1^R455H/+×Kcnt1^R455H/+ crosses. […] In round two, three doses of Formula (I-A) were delivered to one dam from a Kcnt1^R455H/+×Kcnt1^R455H/+ cross.
# as §1
compound,measurement,setting,value
C[C@H](NC(=O)c1cc(C(F)(F)F)nn1C)c1nc(-c2ccnc(C(F)(F)F)c2)no1 [Formula (I-A)],"action potential firing and outward currents, pyramidal cells (presumed glutamatergic)",[1],less sustained action potential firing and diminished outward currents
same,"spike rates and outward currents, presumed GABAergic neurons",[1],markedly reduced spike rates and outward currents
same,Brain Homogenate Concentration,[2],15.2 ng/mL and 133 ng/mL and 109 ng/mL and 16.9 ng/mL
same,Brain Homogenate Concentration (ng/mL),[2],BLQ
same,Final brain concentration,[2],167 ng/g and 1458 ng/g and 1200 ng/g and 354 ng/g
same,Final brain concentration (ng/g),[2],BLQ
same,animals with PTZ-induced convulsive seizures,"[3]; 75 mg/kg s.c., 1 hour pretreatment before PTZ 55 mg/kg IP, 1/16 animals, vehicle 6/15 (40%)",6%
same,Convulsive seizure latency: hazard ratio (drug/vehicle),"[3]; 75 mg/kg s.c., 1 hour pretreatment before PTZ 55 mg/kg IP",0.13 (95% CI 0.03-0.58)
same,Convulsive seizure latency: hazard ratio (drug/vehicle),"[3]; 75 mg/kg s.c., 2 hours pretreatment before PTZ 55 mg/kg IP",0.056 (95% CI 0.019-0.161)
same,mice with a seizure that reached stage 6-7,"[3]; 75 mg/kg s.c., 2 hours prior to PTZ 55 mg/kg IP, 1 out of 20 mice, vehicle 13 out of 20 (65%)",5%
same,effect on PTZ-induced seizures (in words),"[3]; 75 mg/kg s.c., compared to vehicle-treated mice",anticonvulsant against PTZ-induced seizures; also recorded: significantly increased the latency to and reduced the incidence of PTZ-induced seizures
same,Latency (s) to clonic or tonic seizures with loss of posture,[3]; 75 mg/kg s.c. 1 hour prior to PTZ,1320 s (14×) and 190 s and 647 s
same,Latency (s) to clonic or tonic seizures with loss of posture,[3]; 75 mg/kg s.c. 2 hours prior to PTZ,1320 s (19×) and 294 s
same,"interictal spike rate, first 24 hours after dosing vs preceding 72-hour baseline","[4]; N=12, p=0.005",marked per-animal reduction; also recorded: reduced
same,"interictal spike rate, second day after dosing vs baseline","[4]; N=12, p=0.042",reduction persisted
same,"interictal spike rate reduction, third day after dosing vs baseline","[4]; N=12, p>0.999",no longer evident
same,mice with a decrease in spike rates from baseline to Day 1,[4]; baseline-adjusted spike rates,11 out of 12
same,Age survived before death or euthanasia,"Kcnt1^R455H/R455H pups; Kcnt1^+/+ pups, 2 or 3 doses, brains collected at 14 days",14 days
same,Age survived before death or euthanasia,"Kcnt1^R455H/R455H pups; Kcnt1^R455H/+ pups, 2 or 3 doses, brains collected at 14 days",14 days
same,Age survived before death or euthanasia,"Kcnt1^R455H/R455H pups; Kcnt1^R455H/R455H pups, 2 doses (litters 1, 2) or 3 doses (litter 3), pups not dosed, dams given 2 doses",1 days (3×) and 2 days
same,Age survived before death or euthanasia,"Kcnt1^R455H/R455H pups; Kcnt1^R455H/R455H pups, 2 doses (litters 1, 2) or 3 doses (litter 3), pups not dosed, dams given 3 doses",4 days
same,Kcnt1^R455H/R455H pups that survived multiple days,Kcnt1^R455H/R455H pups; maternal dosing 75 mg/kg s.c.,Two of five
same,survival of Kcnt1^R455H/R455H pups born alive (in words),"Kcnt1^R455H/R455H pups; round one: two doses 75 mg/kg s.c. to each of two dams, four pups born alive",three surviving for one day and one surviving two days
same,survival of Kcnt1^R455H/R455H pup (in words),"Kcnt1^R455H/R455H pups; round two: three doses 75 mg/kg s.c. to one dam, one pup",survived for four days

# — patent US20250360117A1, “KCNT1 INHIBITORS COMPRISING AN ISOXAZOLE OR OXADIAZOLE CORE AND METHODS OF USE” (PRAXIS PRECISION MEDICINES, INC., priority 2022, published 2025)
